This passage reports MIC results from DBAASP.

Common to all, as to test: ≥ marks a high value that may be exact or a test limit, other limits are often not marked, values filed in µg/mL are converted to µM
Assay [1] relates to Escherichia coli PCM 2057.
The test system of assay [2] is Escherichia coli ATCC 25922.
For assay [3], the system named is Klebsiella pneumoniae KK3 9904.
Assay [4] relates to Candida albicans ATCC 90028.
For assay [5], the system named is Pseudomonas aeruginosa ATCC 27853.
Assay [6] deals with Enterobacter cloacae NHTCC 53001.
For assay [7], the system named is Staphylococcus aureus NCTC 8325.
The subject of assay [8] is Escherichia coli IFO 3301.
Assay [9] relates to Bacillus subtilis IFO 3336.
Assay [10] deals with Vibrio splendidus LGP-32.
Assay [11] concerns Klebsiella pneumoniae CIP 52.145.
Assay [12] concerns Vibrio splendidus IFREMER.
For assay [13], the system named is Vibrio aestuarianus CIP 109791T.
In assay [14] the test system is Salmonella typhimurium LME, Caen.
Assay [15] relates to Aeromonas salmonicida CIP 103209T.
Assay [16] deals with Vibrio aestuarianus IFREMER.
The subject of assay [17] is Listeria monocytogenes LME, Caen.
Assay [18] deals with Pseudomonas aeruginosa CIP A22.
In assay [19] the test system is Staphylococcus aureus CIP 53.156.
The test system of assay [20] is Vibrio alginolyticus IFREMER.
Assay [21] has as its system Bacillus megaterium CIP 51.17.
The test system of assay [22] is Enterococcus faecalis CIP 76.117.
Assay [23] relates to Escherichia coli CIP 54.8.
Assay [24] relates to Vibrio splendidus SATMAR.
Assay [25] relates to Vibrio vulnificus CIP 109783.
Assay [26] concerns Salmonella typhimurium.
Assay [27] has as its system Vibrio parahaemolyticus Vp+1.
Assay [28] relates to Escherichia coli JCM 1649.
The test system of assay [29] is Photobacterium damselae subsp. piscicida Sp 9587.
Assay [30] deals with Vibrio anguillarum NCIMB 829.
Assay [31] concerns Staphylococcus aureus IAM 1011.
In assay [32] the test system is Bacillus subtilis IAM 1026.
The test system of assay [33] is Aeromonas salmonicida NCIMB 1102.
The subject of assay [34] is Shewanella putrefaciens IAM 1509.

Values after ≈ are worked out from the molar mass of the structure shown.

Broadly, the MIC is the lowest concentration found to suppress growth. Read a low MIC as a more susceptible organism. For the compound `CC[C@H](C)[C@H](NC(=O)[C@H](CC(N)=O)NC(=O)[C@H](C)NC(=O)[C@H](C)N)C(=O)N1CCC[C@H]1C(=O)N[C@@H](Cc1ccccc1)C(=O)N[C@@H](CCCCN)C(=O)N[C@H](C(=O)N[C@@H](Cc1cnc[nH]1)C(=O)N[C@@H](Cc1ccccc1)C(=O)N[C@@H](CCCN=C(N)N)C(=O)N[C@H]1CSSC[C@@H](C(=O)O)NC(=O)[C@H](Cc2ccccc2)NC(=O)[C@H](C)NC(=O)[C@H](C)NC(=O)[C@H](CCCCN)NC1=O)C(C)C` [AANIPFKVHFRCKAAFC], the MIC in assay [1] is at least 520 µM.
As to `CC[C@H](C)[C@H](NC(=O)[C@H](Cc1cnc[nH]1)NC(=O)[C@H](CCCCN)NC(=O)CNC(=O)[C@H](C)NC(=O)[C@@H](NC(=O)[C@H](CCCCN)NC(=O)[C@H](CC(C)C)NC(=O)[C@@H](NC(=O)CNC(=O)[C@H](CCCN=C(N)N)NC(=O)[C@H](Cc1ccccc1)NC(=O)[C@H](CC(C)C)NC(=O)[C@H](CO)NC(=O)[C@H](CCSC)NC(=O)[C@H](CC(C)C)NC(=O)CN)C(C)C)[C@@H](C)O)C(=O)N[C@@H](Cc1ccccc1)C(=O)N[C@@H](CCCCN)C(=O)N[C@@H](CC(N)=O)C(=O)N[C@H](C(=O)NCC(=O)NCC(=O)N[C@@H](CO)C(=O)N[C@@H](CC(C)C)C(=O)N[C@@H](CC(C)C)C(=O)N[C@@H](CC(=O)O)C(=O)N[C@@H](CCC(N)=O)C(=O)N[C@@H](C)C(=O)N[C@@H](CCCCN)C(=O)N[C@H]1CSSC[C@@H](C(=O)O)NC(=O)[C@H](CCC(=O)O)NC(=O)CNC(=O)[C@H]([C@@H](C)O)NC(=O)[C@H]([C@@H](C)CC)NC(=O)[C@H](CCCCN)NC1=O)C(C)C` [GLMSLFRGVLKTAGKHIFKNVGGSLLDQAKCKITGEC], the MIC in assay [2] was 3 µM (≈ 11.8 µg/mL); in assay [3] it was 6 µM (≈ 23.5 µg/mL); in assay [4], at least 100 µM; in assay [5], 3 µM (≈ 11.8 µg/mL); in [6], 6 µM (≈ 23.5 µg/mL); in [7] it was 25 µM (≈ 98 µg/mL).
Consider `NCCCC[C@H](NC(=O)[C@H](Cc1cnc[nH]1)NC(=O)[C@H](CCCCN)NC(=O)[C@H](Cc1cnc[nH]1)NC(=O)[C@H](CCCCN)NC(=O)[C@H](Cc1cnc[nH]1)NC(=O)[C@H](CCCCN)NC(=O)[C@H](Cc1cnc[nH]1)NC(=O)[C@@H](N)CCCCN)C(=O)N[C@@H](Cc1cnc[nH]1)C(=O)O` [KHKHKHKHKH], for which the MIC in [8] and in assay [9] was 7.44 µM (≈ 10 µg/mL) each time.
`CC(C)C[C@H](NC(=O)CNC(=O)[C@H](Cc1ccccc1)NC(=O)[C@H](Cc1ccccc1)NC(=O)[C@H](CC(C)C)NC(=O)CNC(=O)[C@H](Cc1ccccc1)NC(=O)[C@H](CC(C)C)NC(=O)[C@@H]1CCCN1C(=O)[C@H](CCCCN)NC(=O)[C@H](CCCCN)NC(=O)[C@H](CCCCN)NC(=O)[C@@H](N)CCCCN)C(=O)N[C@@H](Cc1ccccc1)C(=O)O` [KKKKPLFGLFFGLF]: the MIC in [10] was 24.5 µM (≈ 40.9 µg/mL); in assay [11] it was at least 33.9 µM; in assay [12] it was 8.47 µM (≈ 14.1 µg/mL); in assay [13] it was 14.1 µM (≈ 23.6 µg/mL); in [14], at least 33.9 µM; in [15] it was 14.1 µM (≈ 23.6 µg/mL). Besides, the MIC in assay [16] was 4.23 µM (≈ 7.07 µg/mL); in [17], 16.9 µM (≈ 28.3 µg/mL); in assay [18] it was at least 33.9 µM; in assay [19] it was 8.47 µM (≈ 14.1 µg/mL); in assay [20], 4.23 µM (≈ 7.07 µg/mL); in assay [21] it was 4.23 µM (≈ 7.07 µg/mL). Further, the MIC is at least 67.7 µM in assay [22], 4.23 µM (≈ 7.07 µg/mL) in assay [23], 14.1 µM (≈ 23.6 µg/mL) in assay [24] and at least 50 µM in [25].
In the case of `CC[C@H](C)[C@H](NC(=O)[C@H](C)NC(=O)CNC(=O)[C@@H](NC(=O)[C@@H](NC(=O)[C@H](CCC(N)=O)NC(=O)[C@@H]1CCCN1C(=O)[C@@H](NC(=O)[C@H](C)NC(=O)CNC(=O)[C@@H](NC(=O)[C@@H](NC(=O)[C@H](Cc1cnc[nH]1)NC(=O)[C@@H]1CCCN1C(=O)[C@H](CC(C)C)NC(=O)[C@H](CC(C)C)NC(=O)[C@@H]1CCCN1C(=O)[C@@H](NC(=O)[C@H](CC(C)C)NC(=O)[C@H](Cc1ccccc1)NC(=O)CNC(=O)[C@H](Cc1ccccc1)NC(=O)[C@@H](N)CC(C)C)[C@@H](C)CC)[C@@H](C)CC)[C@@H](C)CC)[C@@H](C)CC)C(C)C)[C@@H](C)CC)C(=O)N[C@@H](CCCN=C(N)N)C(=O)O` [LFGFLIPLLPHIIGAIPQVIGAIR], the MIC in assay [26] came to 19.5 µM (≈ 50 µg/mL); in assay [27] it was 9.73 µM (≈ 25 µg/mL); in assay [28], 19.5 µM (≈ 50 µg/mL); in assay [29], 2.43 µM (≈ 6.25 µg/mL); in assay [30], 9.73 µM (≈ 25 µg/mL); in assay [31] it was 2.43 µM (≈ 6.25 µg/mL). In addition, the figures for the minimal inhibitory concentration (MIC) in assay [32], in [33] and in assay [34] were 4.87 µM (≈ 12.5 µg/mL), 19.5 µM (≈ 50 µg/mL) and 2.43 µM (≈ 6.25 µg/mL), respectively.
For `NC(N)=NCCC[C@H](NC(=O)CNC(=O)[C@H](CCCN=C(N)N)NC(=O)CNC(=O)[C@H](CCCN=C(N)N)NC(=O)CNC(=O)[C@H](CCCN=C(N)N)NC(=O)CNC(=O)[C@@H](N)CCCN=C(N)N)C(=O)NCC(=O)O` [RGRGRGRGRG], the MIC in [8] and in [9] was at least 92.2 µM in each case.
